Laboratory results: ChEMBL document CHEMBL5390237, “Discovery of Selective Histone Deacetylase 1 and 2 Inhibitors: Screening of a Focused Library Constructed by Click Chemistry, Kinetic Binding Analysis, and Biological Evaluation” (J Med Chem, 2023)

biological target: Histone deacetylase 2 (Homo sapiens, UniProt Q92769); assay: Inhibition of full-length recombinant human C-terminal GST tagged HDAC2 expressed in Sf9 insect cells using aminoluciferin peptide substrate at 100 nM preincubated for 3 hrs followed by substrate addition and measured after 30 mins by HDAC-Glo I/II chemiluminescence assay; conditions: time 3.5 hrs
Sequence (Q92769 whole entry): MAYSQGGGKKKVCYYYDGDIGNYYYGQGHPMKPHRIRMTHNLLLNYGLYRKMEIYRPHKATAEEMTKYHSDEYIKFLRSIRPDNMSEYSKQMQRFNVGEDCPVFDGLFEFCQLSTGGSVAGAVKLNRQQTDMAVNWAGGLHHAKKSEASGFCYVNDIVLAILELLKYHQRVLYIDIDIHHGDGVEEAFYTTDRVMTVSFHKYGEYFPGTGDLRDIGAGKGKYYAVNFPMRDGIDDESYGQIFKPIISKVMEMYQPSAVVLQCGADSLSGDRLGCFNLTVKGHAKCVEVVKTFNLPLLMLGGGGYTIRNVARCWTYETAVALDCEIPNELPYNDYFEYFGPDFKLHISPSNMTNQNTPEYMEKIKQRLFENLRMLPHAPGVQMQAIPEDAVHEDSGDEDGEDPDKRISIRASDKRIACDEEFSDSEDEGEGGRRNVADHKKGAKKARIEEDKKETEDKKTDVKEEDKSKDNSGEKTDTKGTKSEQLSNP

Row | Structure (SMILES) | inhibition
1 | Cc1cccc(CCn2cc(CCC(=O)Nc3cc(-c4cccnc4)ccc3N)nn2)c1 | 30%
2 | Nc1ccc(-c2cccnc2)cc1NC(=O)CCc1cn(CCc2ccc(C(=O)O)cc2)nn1 | 9%
3 | Nc1ccc(-c2ccccc2)cc1NC(=O)c1cn(CCc2ccc([N+](=O)[O-])cc2)nn1 | 0%
4 | Cc1cccc(CCn2cc(-c3ccc(C(=O)Nc4cc(-c5cccs5)ccc4N)cc3)nn2)c1 | 26%
5 | Nc1ccc(-c2cccs2)cc1NC(=O)c1ccc(-c2cn(CC(=O)Nc3ccc(F)cc3)nn2)s1 | 23%
6 | Nc1ccc(-c2cccs2)cc1NC(=O)c1ccc(-c2cn(CCCCCc3ccccc3)nn2)s1 | 1%
7 | Nc1ccc(-c2ccc(F)cc2)cc1NC(=O)CCc1cn(CC(=O)Nc2ccc(F)cc2)nn1 | 16%
8 | Nc1ccc(-c2cccs2)cc1NC(=O)c1ccc(-c2cn(CCc3cccc([N+](=O)[O-])c3)nn2)cc1 | 25%
9 | Nc1ccc(-c2cccs2)cc1NC(=O)c1ccc(-c2cn(CCc3cccc(Cl)c3)nn2)s1 | 6%
10 | Cc1ccc(CCn2cc(C(=O)Nc3cc(-c4ccsc4)ccc3N)nn2)cc1 | 8%
11 | Nc1ccc(-c2cccnc2)cc1NC(=O)CCc1cn(CCc2cccc([N+](=O)[O-])c2)nn1 | 15%
12 | Nc1ccc(-c2cccs2)cc1NC(=O)c1cn(CCc2cccc3ccccc23)nn1 | 0%
13 | Nc1ccc(-c2ccsc2)cc1NC(=O)CCc1cn(CCCCCCC(=O)O)nn1 | 0%
14 | Nc1ccc(-c2ccc(F)cc2)cc1NC(=O)c1cn(CCc2ccc(C(=O)O)cc2)nn1 | 31%
15 | Nc1ccc(-c2cccs2)cc1NC(=O)c1ccc(-c2cn(CCc3ccc(C(=O)O)cc3)nn2)cc1 | 46%
16 | Cc1csc(CCn2cc(CCC(=O)Nc3cc(-c4ccccc4)ccc3N)nn2)n1 | 29%
17 | Nc1ccc(-c2ccc(F)cc2)cc1NC(=O)CCc1cn(CCc2cccc(Cl)c2)nn1 | 17%
18 | Nc1ccc(-c2cccs2)cc1NC(=O)c1cn(CCN2CCc3ccccc3C2)nn1 | 18%
19 | Nc1ccc(-c2ccsc2)cc1NC(=O)CCc1cn(CCC23CC4CC(CC(C4)C2)C3)nn1 | 0%
20 | Nc1ccc(-c2cccs2)cc1NC(=O)c1ccc(-c2cn(CCCCCCCC(=O)O)nn2)s1 | 14%
21 | Nc1ccc(-c2cccnc2)cc1NC(=O)CCc1cn(-c2ccc(O)cc2)nn1 | 0%

Row | Structure (SMILES) | inhibition
22 | Nc1ccc(-c2cccs2)cc1NC(=O)c1cn(CCc2ccsc2)nn1 | 0%
23 | Cc1ccc(CCn2cc(-c3cccc(C(=O)Nc4cc(-c5cccs5)ccc4N)c3)nn2)cc1 | 4%
24 | Nc1ccc(-c2ccsc2)cc1NC(=O)c1cn(CCCCCCC(=O)O)nn1 | 8%
25 | Nc1ccc(-c2cccs2)cc1NC(=O)CCc1cn(CCC2CCCC2)nn1 | 0%
26 | Cc1cccc(C)c1NC(=O)Cn1cc(CCC(=O)Nc2cc(-c3ccccc3)ccc2N)nn1 | 19%
27 | Nc1ccc(-c2cccnc2)cc1NC(=O)CCc1cn(CCCCCc2ccccc2)nn1 | 16%
28 | Nc1ccc(-c2ccc(F)cc2)cc1NC(=O)c1cn(Cc2ccc3ccccc3n2)nn1 | 27%
29 | Nc1ccc(-c2ccccc2)cc1NC(=O)CCc1cn(-c2ccc([N+](=O)[O-])cc2)nn1 | 0%
30 | Nc1ccc(-c2ccccc2)cc1NC(=O)CCc1cn(CCCc2ccccc2)nn1 | 9%
31 | Nc1ccc(-c2cccs2)cc1NC(=O)c1cn(CCc2ccc(Cl)cc2)nn1 | 0%
32 | Nc1ccc(-c2cccs2)cc1NC(=O)c1cccc(-c2cn(CCc3ccccc3Cl)nn2)c1 | 0%
33 | Cc1csc(CCn2cc(-c3ccc(C(=O)Nc4cc(-c5cccs5)ccc4N)cc3)nn2)n1 | 68%
34 | Nc1ccc(-c2ccc(F)cc2)cc1NC(=O)CCc1cn(Cc2ccc(Oc3ccccc3)cc2)nn1 | 0%
35 | Cc1ccc(-n2cc(CCC(=O)Nc3cc(-c4cccnc4)ccc3N)nn2)cc1C | 0%
36 | Nc1ccc(-c2ccc(F)cc2)cc1NC(=O)CCc1cn(Cc2ccc3ccccc3n2)nn1 | 26%
37 | Nc1ccc(-c2cccs2)cc1NC(=O)c1ccc(-c2cn(CCc3cccc4ccccc34)nn2)cc1 | 0%
38 | Nc1ccc(-c2cccs2)cc1NC(=O)CCc1cn(Cc2ccc(C(=O)O)cc2)nn1 | 31%
39 | Nc1ccc(-c2ccccc2)cc1NC(=O)CCc1cn(CCN2CCc3ccccc3C2)nn1 | 11%
40 | Nc1ccc(-c2cccnc2)cc1NC(=O)CCc1cn(CC(=O)Nc2ccc(F)cc2)nn1 | 0%
41 | Nc1ccc(-c2ccccc2)cc1NC(=O)c1cn(Cc2ccc3ccccc3n2)nn1 | 6%
42 | Nc1ccc(-c2ccsc2)cc1NC(=O)CCc1cn(-c2ccc([N+](=O)[O-])cc2)nn1 | 0%

Row | Structure (SMILES) | inhibition
43 | Nc1ccc(-c2cccnc2)cc1NC(=O)CCc1cn(Cc2ccc3ccccc3n2)nn1 | 3%
44 | Nc1ccc(-c2cccnc2)cc1NC(=O)CCc1cn(CCCc2ccccc2)nn1 | 15%
45 | Nc1ccc(-c2ccccc2)cc1NC(=O)CCc1cn(CCc2ccc(C(=O)O)cc2)nn1 | 33%
46 | Nc1ccc(-c2ccsc2)cc1NC(=O)c1cn(Cc2cccc(-c3ccccc3)c2)nn1 | 0%
47 | Nc1ccc(-c2cccs2)cc1NC(=O)c1ccc(-c2cn(CCCCCCCC(=O)O)nn2)cc1 | 0%
48 | Nc1ccc(-c2cccs2)cc1NC(=O)CCc1cn(CC(=O)c2ccccc2)nn1 | 13%
49 | Nc1ccc(-c2cccs2)cc1NC(=O)c1ccc(-c2cn(-c3ccc(I)cc3)nn2)s1 | 0%
50 | Nc1ccc(-c2ccccc2)cc1NC(=O)CCc1cn(CCc2ccccc2Cl)nn1 | 0%
51 | Nc1ccc(-c2cccs2)cc1NC(=O)c1ccc(-c2cn(CCc3ccsc3)nn2)cc1 | 26%
52 | Nc1ccc(-c2cccs2)cc1NC(=O)c1cccc(-c2cn(CCc3ccccc3[N+](=O)[O-])nn2)c1 | 0%
53 | Nc1ccc(-c2cccs2)cc1NC(=O)c1cccc(-c2cn(CC3CCCCC3)nn2)c1 | 0%
54 | Nc1ccc(-c2ccccc2)cc1NC(=O)c1cn(CCc2cccc3ccccc23)nn1 | 0%
55 | COc1ccc(Cn2cc(CCC(=O)Nc3cc(-c4cccs4)ccc3N)nn2)cc1 | 10%
56 | Nc1ccc(-c2ccc(F)cc2)cc1NC(=O)CCc1cn(-c2ccc([N+](=O)[O-])cc2)nn1 | 7%
57 | Cc1cccc(C)c1NC(=O)Cn1cc(CCC(=O)Nc2cc(-c3ccc(F)cc3)ccc2N)nn1 | 18%
58 | Cc1ccccc1CCn1cc(CCC(=O)Nc2cc(-c3cccnc3)ccc2N)nn1 | 0%
59 | Nc1ccc(-c2ccc(F)cc2)cc1NC(=O)CCc1cn(CCc2ccccc2C(F)(F)F)nn1 | 0%
60 | Nc1ccc(-c2ccccc2)cc1NC(=O)CCc1cn(CS(=O)(=O)c2ccccc2)nn1 | 9%
61 | COc1ccccc1CCn1cc(CCC(=O)Nc2cc(-c3ccccc3)ccc2N)nn1 | 10%

The remaining lines, values ahead:

Row | inhibition | Structure (SMILES)
62 | 0% | Nc1ccc(-c2ccsc2)cc1NC(=O)c1cn(CCCCCC(=O)O)nn1
63 | 9% | Nc1ccc(-c2cccs2)cc1NC(=O)c1cn(CCc2ccc(C(F)(F)F)cc2)nn1
64 | 5% | Nc1ccc(-c2cccs2)cc1NC(=O)CCc1cn(CCc2ccc(C(F)(F)F)cc2)nn1
65 | 4% | Nc1ccc(-c2ccc(F)cc2)cc1NC(=O)CCc1cn(CCc2ccccc2Cl)nn1
66 | 5% | Nc1ccc(-c2cccs2)cc1NC(=O)CCc1cn(CCC23CC4CC(CC(C4)C2)C3)nn1
67 | 18% | Nc1ccc(-n2cc(CCC(=O)Nc3cc(-c4ccccc4)ccc3N)nn2)cc1
68 | 16% | Nc1ccc(-c2ccc(F)cc2)cc1NC(=O)c1cn(CCc2ccccn2)nn1
69 | 5% | Nc1ccc(-c2ccsc2)cc1NC(=O)c1cn(/C=C/c2ccccc2)nn1
70 | 14% | Cc1ccccc1CCn1cc(-c2ccc(C(=O)Nc3cc(-c4cccs4)ccc3N)s2)nn1
71 | 13% | Nc1ccc(-c2cccnc2)cc1NC(=O)CCc1cn(CCc2cccc3ccccc23)nn1
72 | 4% | Nc1ccc(-c2cccs2)cc1NC(=O)c1ccc(-c2cn(-c3ccc([N+](=O)[O-])cc3)nn2)cc1
73 | 0% | Nc1ccc(-c2cccs2)cc1NC(=O)c1cn(CCc2cccc(F)c2)nn1
74 | 0% | Nc1ccc(-c2cccs2)cc1NC(=O)c1ccc(-c2cn(CCc3cccc(C(F)(F)F)c3)nn2)s1
75 | 2% | Nc1ccc(-c2ccccc2)cc1NC(=O)CCc1cn(-c2ccccc2-c2ccccc2)nn1
76 | 27% | COc1ccc(Cn2cc(-c3ccc(C(=O)Nc4cc(-c5cccs5)ccc4N)s3)nn2)cc1
77 | 41% | Nc1ccc(-c2ccc(F)cc2)cc1NC(=O)CCc1cn(CCc2cccc([N+](=O)[O-])c2)nn1

Row | inhibition | Structure (SMILES)
78 | 6% | Cc1csc(CCn2cc(CCC(=O)Nc3cc(-c4cccnc4)ccc3N)nn2)n1
79 | 10% | Nc1ccc(-c2cccs2)cc1NC(=O)CCc1cn(CCCc2ccccc2)nn1
80 | 4% | Nc1ccc(-c2ccsc2)cc1NC(=O)c1cn(Cc2cccc3ccccc23)nn1
81 | 0% | Nc1ccc(-c2cccs2)cc1NC(=O)c1ccc(-c2cn(CCC34CC5CC(CC(C5)C3)C4)nn2)s1
82 | 0% | Nc1ccc(-c2ccc(F)cc2)cc1NC(=O)c1cn(C[S+]([O-])c2ccccc2)nn1 (stereo not drawn)
83 | 31% | Nc1ccc(-n2cc(C(=O)Nc3cc(-c4ccsc4)ccc3N)nn2)cc1
84 | 0% | Nc1ccc(-c2ccccc2)cc1NC(=O)c1cn(Cc2ccc(OC(F)(F)F)cc2)nn1
85 | 21% | Nc1ccc(-n2cc(CCC(=O)Nc3cc(-c4ccc(F)cc4)ccc3N)nn2)cc1
86 | 11% | Cc1cccc(CCn2cc(C(=O)Nc3cc(-c4cccs4)ccc3N)nn2)c1
87 | 0% | Nc1ccc(-c2ccccc2)cc1NC(=O)CCc1cn(Cc2ccc(Oc3ccccc3)cc2)nn1
88 | 0% | Nc1ccc(-c2ccccc2)cc1NC(=O)c1cn(CCc2cccc(Cl)c2)nn1
89 | 27% | Nc1ccc(-c2cccs2)cc1NC(=O)CCc1cn(CCc2cccc([N+](=O)[O-])c2)nn1
90 | 39% | Cc1csc(CCn2cc(CCC(=O)Nc3cc(-c4ccsc4)ccc3N)nn2)n1
91 | 10% | Nc1ccc(-c2ccc(F)cc2)cc1NC(=O)c1cn(-c2ccc(Br)cc2)nn1
92 | 1% | Nc1ccc(-c2ccc(F)cc2)cc1NC(=O)CCc1cn(CCc2ccc(C(F)(F)F)cc2)nn1
93 | 16% | Nc1ccc(-c2cccs2)cc1NC(=O)c1ccc(-c2cn(CCc3ccccc3[N+](=O)[O-])nn2)s1
